US20170340588A1, “MODULATION OF REGULATORY T CELLS VIA G-COUPLED PROTEIN RECEPTOR 43” (President and Fellows of Harvard College, priority 2013, published 2017)
Like-named read-outs stand apart in the source and are kept apart here.

Assays:
[1] = Stability of SCFA mix in mouse water bottle over time; type: physicochemical; conditions: for SCFA mix in mouse water bottle over time, Day 1 / SCFA mix in mouse water bottle over time, Day 4 / SCFA mix in mouse water bottle over time, Day 7 / SCFA mix in mouse water bottle over time, Day 10 / SCFA mix in mouse water bottle over time, Day 14 / SCFA mix in mouse water bottle over time, Day 90: input 200 mM
Experimental: Mice were treated for 21 days with either sodium acetate (150 mM), sodium propionate (150 mM), sodium butyrate (100 mM) or a SCFA mix (67.5 mM acetate, 40 mM Butyrate, 25.9 mM Propionate) in the drinking water. In in vivo drinking water treatment experiments, control mice received pH and sodium-matched water. At the conclusion of the experiment mice were removed from isolators and processed immediately.

[2] = mouse, in vivo
Experimental: At the conclusion of the experiment mice were removed from isolators and processed immediately.
Cecal or small intestinal contents were collected immediately after animals were sacrificed and flash frozen in N2(1). Samples were mashed in 500 μl HPLC grade water and centrifuged at >14,000 x g, the resulting supernatant was then passed through a 0.22 μm syringe filter to remove bacterial cells and debris. Samples we then acidified with 1/10 volume of 0.01M H2SO4, heated and passed through a condenser to isolate volatile compounds within a sample. SCFA analyses were performed using an Agilent 1200 series HPLC and a Poroshell 120 SB C18 column (2.7 μm, 3.0×100mm) with guard column (Agilent Technologies). Sulfuric acid (0.01M) was used as the mobile phase. SCFA concentrations were weight corrected.

[3] = tested on: colonic Treg (cTreg); assay: Antibiotic (vancomycin) treatment of SPF mice with or without SCFA; type: in vivo; conditions: SPF mice, vancomycin alone in drinking water
Experimental: Science 341: 1645 (2013). […] The crude cell suspension was loaded onto a 40%/90% Percoll (GE Healthcare) gradient and centrifuged at 720 x g for 25 min at room temperature with acceleration and brake turned off. LP lymphocytes were collected from the 40%/90% interface. Intracellular staining of the transcription factors Foxp3, Helios and T-bet was performed using the Foxp3 Fix/Perm Buffer Set (Biolegend). For detection of intracellular cytokines, cells were first stimulated for 4 h with 50 ng/ml PMA and 1 μg/ml ionomycin in the presence of Brefeldin A (All obtained from Sigma), followed by staining for surface markers. Cells were then fixed and permeabilized using the Foxp3 Fix/Perm Buffer Set (Biolegend) and stained for intracellular cytokines. The following antibodies were used: […] All antibodies were obtained from Biolegend unless otherwise noted. Flow cytometry was performed using LSRII and data were analyzed with FlowJo software (TreeStar, Inc.). Cell sorting was performed using a […] at the Dana-Farber Cancer Institute Flow Cytometry Core.

SMILES | SCFA mix in mouse water bottle over time, Input (Day 0) [1] [mM] | SCFA mix in mouse water bottle over time, Day 1 [1] [mM] | SCFA mix in mouse water bottle over time, Day 4 [1] [mM] | SCFA mix in mouse water bottle over time, Day 7 [1] [mM] | SCFA mix in mouse water bottle over time, Day 10 [1] [mM] | SCFA mix in mouse water bottle over time, Day 14 [1] [mM] | SCFA mix in mouse water bottle over time, Day 90 [1] [mM] | SCFA levels, SPF SI [2] [µmol/g] | SCFA levels, cecal contents, ASF [2] [µmol/g] | SCFA levels, cecal contents, GF [2] [µmol/g] | SCFA levels, cecal contents, SPF [2] [µmol/g] | other results
CC(=O)O [Acetate, acetic acid] | 200 | 195 | 220.1 | 192.2 | 196.3 | 202.5 | 56.1 | 15.19 ± 9.2 | 28.69 ± 8.32 | 2.82 ± 0.534 | 40.66 ± 5.86 | SCFA levels, SPF SI + P [2]: 15.46 ± 3.69 µmol/g; SCFA levels, cecal contents, GF + A [2]: 16.18 ± 4.65 µmol/g; SCFA levels, cecal contents, GF + Mic [2]: 20.83 ± 0.47 µmol/g; SCFA levels, cecal contents, SPF + A [2]: 53.95 ± 1.91 µmol/g; SCFA levels, cecal contents, SPF + Vanco [2]: 8.63 ± 1.73 µmol/g
CCCC(=O)O [Butyrate, butyric acid] | 200 | 203.09 | 202.85 | 202.27 | 202.69 | 202.19 | 38 | 7.183 ± 2.39 | 16.89 ± 1.46 | 2.13 ± 0.598 | 18.52 ± 4.92 | SCFA levels, cecal contents, SPF + B ([2]; BALB/c, 2 weeks): 29.78 ± 6.202 µmol/g; SCFA levels, cecal contents, GF + B ([2]; BALB/c, 21 days): 11.46 ± 1.46 µmol/g; SCFA levels, cecal contents, GF + Mic ([2]; BALB/c, 21 days): 20.6 ± 3.96 µmol/g; SCFA levels, SPF SI + P ([2]; 2 weeks): 6.45 ± 2.11 µmol/g; SCFA levels, cecal contents, SPF + Vanco ([2]; 4 weeks): 1.04 ± 0.903 µmol/g
CN[C@H](CC(C)C)C(=O)N[C@H]1C(=O)N[C@@H](CC(N)=O)C(=O)N[C@H]2C(=O)N[C@H]3C(=O)N[C@H](C(=O)N[C@H](C(=O)O)c4cc(O)cc(O)c4-c4cc3ccc4O)[C@H](O)c3ccc(c(Cl)c3)Oc3cc2cc(c3O[C@@H]2O[C@H](CO)[C@@H](O)[C@H](O)[C@H]2O[C@H]2C[C@](C)(N)[C@H](O)[C@H](C)O2)Oc2ccc(cc2Cl)[C@H]1O [vancomycin, reference compound] |  |  |  |  |  |  |  |  |  |  |  | cTreg level [3]: reduced
